Among the data in PubChem BioAssay (NCI) are TGI and GI50 values, retold here.

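These data come from cells grown in 96-well plates and exposed to compound for 48 hours at five concentrations. GI50: concentration for 50% inhibition of growth. TGI: total growth inhibition.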

What all share (assay): DTP human tumour cell line panel, 48 h
In assay [1] the test system is HCT-15 colon.
Assay [2] concerns KM12 colon.
Assay [3] concerns M14 melanoma.
Assay [4] concerns NCI-H460 lung.
In assay [5] the test system is SK-MEL-2 melanoma.
Assay [6] has as its system SK-MEL-28 melanoma.
Assay [7] concerns SR leukemia.

For the compound `C[C@@H]1OC(=O)N2CCCC(=C3SCCCS3)C12` (stereo partly specified), the TGI in assay [1], in assay [2], in assay [3], in assay [4], in assay [5] and in assay [6] was over 100 µM throughout.
Consider `CCOC(=O)/C(=C\c1ccccc1)C(=O)O`, for which the TGI in assay [1], in assay [2], in assay [3], in assay [4], in assay [5] and in assay [6] was over 100 µM in each case. Moreover, the TGI in assay [7] was over 100 µM.
For `CCOC(=O)/C(C#N)=C/c1[nH]c(C(=O)OCc2ccccc2)c(C)c1C`, the TGI in assay [1], in assay [2], in assay [3], in assay [4], in assay [5] and in assay [6] was over 100 µM each time.
With `O=C(CCc1cc(-c2ccccc2)nc(=S)[nH]1)N(Cc1ccccc1)Cc1ccccc1`, the TGI in assay [1], in assay [2], in assay [3], in assay [4] and in assay [5] was over 100 µM in each case.
On to `COc1cc(Nc2nc3ccccc3nc2-c2cccs2)cc(OC)c1OC`, for which the TGI in assay [1], in assay [4], in assay [5], in assay [6] and in assay [7] was over 100 µM each time.
As for `CC1OC(OC2C(OC(=O)[C@]34CCC(C)(C)CC3C3=CCC5[C@@]6(C)C[C@H](O)[C@H](OC7OC(CO)C(O)C(O)C7N)[C@@](C)(C(=O)O)C6CC[C@@]5(C)C3(C)CC4)OCC(O)C2O)C(O)C(O)C1OC1OCC(O)C(O)C1O` (stereo partly specified), the TGI in assay [1], in assay [2], in assay [4], in assay [5] and in assay [6] was over 100 µM each time.
`O=C(O)C(CS)Nc1c2ccccc2nc2ccccc12` (stereo unspecified): the TGI in assay [1], in assay [2], in assay [3], in assay [4], in assay [5] and in assay [6] was over 100 µM each time. Moreover, in assay [7], the TGI is over 100 µM.
As for `NC12CC3CC(C1)CC(C(=O)O)(C3)C2`, the TGI in assay [1], in assay [2], in assay [3], in assay [4], in assay [6] and in assay [7] was over 100 µM throughout.
For `O=C1NC(=O)C(CCC(=O)c2ccc3ccccc3c2)C(=O)N1`, the TGI in assay [1], in assay [2], in assay [3], in assay [4], in assay [5] and in assay [6] was over 100 µM in each case. Further, the TGI in assay [7] was over 100 µM.
Take `O=[N+]([O-])c1ccc(C=NC2CCCCC2)cc1`: the concentration for total growth inhibition (TGI) in assay [1], in assay [2], in assay [3], in assay [4], in assay [5] and in assay [6] was over 100 µM in each case. In addition, in assay [7], the TGI is over 100 µM.
In the case of `COC1(OC)CC2OC1C1N=NN(C(=O)OC(C)(C)C)C21` (stereo unspecified), the TGI in assay [1], in assay [2], in assay [3], in assay [4], in assay [5] and in assay [6] was over 100 µM throughout.
In the case of `COc1ccc(NC(=O)CC(=O)N/N=C/c2ccc(N(CCC#N)S(C)(=O)=O)cc2)cc1`, the TGI in assay [1], in assay [2], in assay [3], in assay [4], in assay [5] and in assay [6] was over 100 µM in each case. The compound further registered a TGI in assay [7] of over 100 µM.
`NC1=NC(c2ccccc2)CC(c2cc(Cl)ccc2O)=N1` (stereo unspecified): the TGI in assay [2] worked out at 26.9 µM; in assay [3], 30.5 µM; in assay [4], 29.3 µM; in assay [6], 33.5 µM; in assay [7] it was 36.6 µM.
For `O=C(NC12CC3CC(CC(F)(C3)C1)C2)c1ccccc1`, the TGI in assay [2], in assay [3], in assay [4], in assay [5] and in assay [6] was over 100 µM each time.
In the case of `C/C(O)=C(\N=O)C(=O)Nc1ccc(Cl)cc1Cl`, the TGI in assay [1], in assay [2], in assay [3], in assay [4], in assay [5] and in assay [6] was over 100 µM in each case.
Take `CN(C)CCNC(=O)c1cccc2ccc(-c3ccncc3)nc12`: the TGI in assay [1] is 11.9 µM; in assay [2], 54.3 µM; in assay [3], 16.1 µM; in assay [5] it was 13.3 µM; in assay [6] it was 17.5 µM.
Regarding `CCN(CC)C(c1ccc(N(C)C)cc1)C(c1ccc(N(C)C)cc1)N(CC)CC` (stereo unspecified), the TGI in assay [1], in assay [2], in assay [3], in assay [4], in assay [5] and in assay [6] was over 73 µM throughout.
With `C/C(CC(=O)Nc1cc(C)ccc1C)=N\NC(=O)c1ccncc1`, the concentration for total growth inhibition (TGI) in assay [2], in assay [3], in assay [4], in assay [5] and in assay [6] was over 100 µM in each case.
In the case of `CC(=O)OCC1OC(NC(=S)N/N=C2\CC(c3ccccc3)Oc3ccccc32)C(OC(C)=O)C(OC(C)=O)C1OC(C)=O` (stereo unspecified), the TGI in assay [1], in assay [2], in assay [3], in assay [4] and in assay [7] was over 100 µM in each case.
In the case of `CCCC1N2CCCCC2[C@@H]2c3[nH]c4ccccc4c3CCN12` (stereo partly specified), the TGI in assay [1], in assay [3], in assay [4], in assay [5] and in assay [6] was over 100 µM throughout.
As for `Cc1ccc(NC(=O)CC(=O)n2nc(C)c(N=Nc3ccccc3C(=O)O)c2C)cc1`, the TGI in assay [1], in assay [2], in assay [3], in assay [4], in assay [5] and in assay [6] was over 100 µM throughout.
For the compound `Nc1cccc(S(=O)(=O)NCC(=O)O)c1`, the TGI in assay [1], in assay [2], in assay [3], in assay [4], in assay [5] and in assay [6] was over 100 µM in each case.
As for `Nc1c(-c2ccc(Cl)cc2)[n+]([O-])c2ccccc2[n+]1[O-]`, the total growth inhibition concentration (TGI) in assay [1], in assay [2], in assay [3], in assay [4], in assay [5] and in assay [6] was over 100 µM in each case.
For `O=C(N/C(=C\c1cccc([N+](=O)[O-])c1)c1nc2ccc([N+](=O)[O-])cc2[nH]1)c1ccccc1`, the TGI in assay [1] was over 100 µM; in assay [2] it was over 100 µM; in assay [3], over 100 µM; in assay [5], 61 µM; in assay [6], over 100 µM; in assay [7], 65.6 µM.
In the case of `Cc1cccc(C(C)C)c1NC(=O)/C(Cc1c([N+](=O)[O-])cccc1[N+](=O)[O-])=N/NC(=O)CC#N`, the TGI in assay [1], in assay [2], in assay [3], in assay [4], in assay [5] and in assay [6] was over 100 µM throughout.
In the case of `O=C(CC1(O)C(=O)Nc2c(Cl)ccc(Cl)c21)c1ccc(F)cc1` (stereo unspecified), the total growth inhibition concentration (TGI) in assay [1], in assay [2], in assay [3], in assay [4], in assay [5] and in assay [6] was over 100 µM each time.
With `COc1ccc2nc3c(C(=O)NCCN(C)C)cccc3nc2c1`, the TGI in assay [1] was 16.6 µM; in assay [2] it was over 100 µM; in assay [3], 19.5 µM; in assay [4], over 1 µM; in assay [5], 21.8 µM; in assay [6], 26.1 µM.
As to `CCC[CH2][Sn]1([CH2]CCC)[O]C(=O)CN=Cc2c(ccc3ccccc23)[O]1`, the GI50 is 0.491 µM in assay [1]; 0.888 µM in assay [2]; 0.367 µM in assay [3]; 1.36 µM in assay [4]; 0.251 µM in assay [5]; 0.363 µM in assay [6]. Moreover, the TGI in assay [1] was 1.75 µM; in assay [2], 2.28 µM; in assay [3], 1.34 µM; in assay [4], 2.75 µM; in assay [5], 0.687 µM; in assay [6] it was 1.13 µM.
With `O=C(CC1(O)C(=O)Nc2ccccc21)c1ccncc1` (stereo unspecified), the TGI in assay [1], in assay [3], in assay [4], in assay [5], in assay [6] and in assay [7] was over 100 µM each time.

The term TGI denotes the concentration at which net growth stops. Low readings indicate greater sensitivity of the cells, high ones lower sensitivity of the cells. The term GI50 denotes the concentration at which growth is held to half of that of the control.
